Legend:
[1] = system: p-IKKα levels in L363 (NIK translocated multiple myeloma) cells; experiment: Effect of compounds on p-IKKα levels in L363 cells (AlphaLISA SureFire Ultra); type: cell-based, human; details: Homo sapiens, L-363, 6 h, BAFF stimulated, MG132, 6 h, average of values, read-out: Assay 2 IC50
Outline: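 Inhibition of p-IKKα (Ser176/180) read by AlphaLISA after 6 h, 37 °C compound exposure (11-point 1:3 series, 0.3% DMSO) of L363 cells pre-incubated overnight ± 250 ng/ml BAFF and plated ± BAFF ± 10 μM MG132. Normalised to BAFF/MG132/DMSO and unstimulated controls; IC50 by sigmoidal fitting, duplicates.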

[2] = target: recombinant human NF-kappaB-inducing kinase (NIK/MAP3K14) (Homo sapiens (Human), UniProt Q99558); experiment: Inhibition of auto-phosphorylation of recombinant human NIK/MAP3K14 (AlphaScreen); type: biochemical; details: NIK auto-phosphorylation, 5 μM ATP, 1 nM NIK, 2 h at 25° C.; average of values
recombinant human NF-kappaB-inducing kinase (NIK/MAP3K14), sequence (Q99558 whole entry): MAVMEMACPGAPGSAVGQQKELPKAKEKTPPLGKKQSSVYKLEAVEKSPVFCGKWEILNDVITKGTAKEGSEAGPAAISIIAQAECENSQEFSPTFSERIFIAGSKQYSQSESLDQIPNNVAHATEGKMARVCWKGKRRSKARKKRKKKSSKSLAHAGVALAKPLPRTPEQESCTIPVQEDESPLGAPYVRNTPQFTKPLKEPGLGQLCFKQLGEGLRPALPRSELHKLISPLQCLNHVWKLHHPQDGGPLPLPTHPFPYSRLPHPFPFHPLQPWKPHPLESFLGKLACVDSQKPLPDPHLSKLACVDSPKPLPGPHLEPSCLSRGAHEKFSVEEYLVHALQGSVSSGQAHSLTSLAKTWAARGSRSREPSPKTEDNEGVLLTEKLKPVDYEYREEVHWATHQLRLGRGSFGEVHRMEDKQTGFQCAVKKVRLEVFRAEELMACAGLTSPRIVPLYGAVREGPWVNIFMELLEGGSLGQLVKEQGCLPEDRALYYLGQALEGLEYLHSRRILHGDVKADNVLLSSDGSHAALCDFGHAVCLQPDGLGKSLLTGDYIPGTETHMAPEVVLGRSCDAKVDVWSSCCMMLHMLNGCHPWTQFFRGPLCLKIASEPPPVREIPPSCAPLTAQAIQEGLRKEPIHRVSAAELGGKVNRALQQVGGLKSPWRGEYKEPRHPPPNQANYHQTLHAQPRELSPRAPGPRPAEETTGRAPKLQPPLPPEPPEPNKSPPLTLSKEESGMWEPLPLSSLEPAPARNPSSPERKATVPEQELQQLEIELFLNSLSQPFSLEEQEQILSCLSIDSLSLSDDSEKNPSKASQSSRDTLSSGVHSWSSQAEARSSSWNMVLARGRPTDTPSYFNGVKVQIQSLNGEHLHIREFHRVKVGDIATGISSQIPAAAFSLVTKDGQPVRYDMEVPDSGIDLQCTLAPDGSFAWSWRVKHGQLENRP
Outline: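 AlphaScreen read-out (anti-phospho-IKK Ser176/180 antibody, Protein A acceptor and glutathione donor beads) of NIK auto-phosphorylation. Reaction: 1 nM enzyme, 5 μM ATP, Tris pH 7.5 buffer with Mg2+ and vanadate, 2 h at 25° C., final DMSO 0.7%. IC50 came from a sigmoidal curve fit.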

Row | Structure (SMILES) | IC50 [1] | IC50 [2]
1 | CN1CC[C@@](O)(C#Cc2cccc(-c3cnc4ncnc(N)c4c3)c2)C1=O [Example 109, (R)-3-((3-(4-Aminopyrido[2,3-d]pyrimidin-6-yl)phenyl)ethynyl)-3-hydroxy-1-methylpyrrolidin-2-one] | > 5000 nM | 13 nM
2 | Cc1cc(-c2cccc(C#C[C@]3(O)CCN(C)C3=O)c2)cc2c(N)ncnc12 [Example 110, (R)-3-((3-(4-Amino-8-methylquinazolin-6-yl)phenyl)ethynyl)-3-hydroxy-1-methylpyrrolidin-2-one] | 11 nM | ≤ 0.5 nM
3 | CN1CC[C@@](O)(C#Cc2cccc(-c3cc4c(N)ncnc4cn3)c2)C1=O [Example 111, (R)-3-[2-[3-(4-Aminopyrido[3,4-d]pyrimidin-6-yl)phenyl]ethynyl]-3-hydroxy-1-methyl-pyrrolidin-2-one] | 160 nM | 1.2 nM
4 | CN1CC[C@@](O)(C#Cc2cccc(-c3ccc4c(Br)cnc(N)c4n3)c2)C1=O [Example 112, (R)-3-[2-[3-(8-Amino-5-bromo-1,7-naphthyridin-2-yl)phenyl]ethynyl]-3-hydroxy-1-methyl-pyrrolidin-2-one] | 4.8 nM | ≤ 0.5 nM
5 | CN1CC[C@@](O)(C#Cc2cccc(-c3cc(F)c4ncnc(N)c4c3)c2)C1=O [Example 113, (R)-3-[2-[3-(4-Amino-8-fluoro-quinazolin-6-yl)phenyl]ethynyl]-3-hydroxy-1-methyl-pyrrolidin-2-one] | 92 nM | ≤ 0.5 nM
6 | COc1cc(-c2cccc(C#C[C@]3(O)CCN(C)C3=O)c2)cc2c(N)ncnc12 [Example 114, (R)-3-((3-(4-Amino-8-methoxyquinazolin-6-yl)phenyl)ethynyl)-3-hydroxy-1-methylpyrrolidin-2-one] | 120 nM | ≤ 0.5 nM
7 | CN1CC[C@@](O)(C#Cc2cccc(-c3cc(C(F)(F)F)c4ncnc(N)c4c3)c2)C1=O [Example 115, (R)-3-((3-(4-Amino-8-(trifluoromethyl)quinazolin-6-yl)phenyl)ethynyl)-3-hydroxy-1-methylpyrrolidin-2-one] | 42 nM | ≤ 0.5 nM
8 | CN1CC[C@@](O)(C#Cc2cccc(-c3nc4c(N)nccc4s3)c2)C1=O [Example 116, (R)-3-((3-(4-Aminothiazolo[4,5-c]pyridin-2-yl)phenyl)ethynyl)-3-hydroxy-1-methylpyrrolidin-2-one] | 47 nM | 0.9 nM
9 | CN1CC[C@@](O)(C#Cc2cccc(-c3cc(Cl)c4ncnc(N)c4c3)c2)C1=O [Example 117, (R)-3-((3-(4-Amino-8-chloroquinazolin-6-yl)phenyl)ethynyl)-3-hydroxy-1-methylpyrrolidin-2-one] | 33 nM | ≤ 0.5 nM
10 | CN1CC[C@@](O)(C#Cc2cccc(-c3ccc4c(C#N)cnc(N)c4n3)c2)C1=O [Example 118, (R)-8-Amino-2-[3-[2-(3-hydroxy-1-methyl-2-oxo-pyrrolidin-3-yl)ethynyl]phenyl]-1,7-naphthyridine-5-carbonitrile] | 1.5 nM | ≤ 0.5 nM
11 | CN1CC[C@@](O)(C#Cc2cccc(-c3cc4c(N)nccc4cn3)c2)C1=O [Example 119, (R)-3-[2-[3-(5-Amino-2,6-naphthyridin-3-yl)phenyl]ethynyl]-3-hydroxy-1-methyl-pyrrolidin-2-one] | 43 nM | 0.7 nM
12 | Cc1cnc(N)c2nc(-c3cccc(C#C[C@]4(O)CCN(C)C4=O)c3)ccc12 [Example 120, (R)-3-[2-[3-(8-Amino-5-methyl-1,7-naphthyridin-2-yl)phenyl]ethynyl]-3-hydroxy-1-methyl-pyrrolidin-2-one] | 21 nM | ≤ 0.5 nM
13 | CN1CC[C@@](O)(C#Cc2cccc(-c3ncc4c(-c5ccccc5)cnc(N)c4n3)c2)C1=O [Example 121, (R)-3-((3-(8-Amino-5-phenylpyrido[3,4-d]pyrimidin-2-yl)phenyl)ethynyl)-3-hydroxy-1-methylpyrrolidin-2-one] | 42 nM | 0.7 nM
14 | CN1CC[C@@](O)(C#Cc2cccc(-c3ncc4c(-c5cnn(C)c5)cnc(N)c4n3)c2)C1=O [Example 122, (R)-3-[2-[3-[8-Amino-5-(1-methylpyrazol-4-yl)pyrido[3,4-d]pyrimidin-2-yl]phenyl]ethynyl]-3-hydroxy-1-methyl-pyrrolidin-2-one] | 2.3 nM | ≤ 0.5 nM
15 | CN1CC[C@@](O)(C#Cc2cccc(-c3ncc4c(-c5cnn(CC(C)(C)O)c5)cnc(N)c4n3)c2)C1=O [Example 123, (R)-3-[2-[3-[8-Amino-5-[1-(2-hydroxy-2-methyl-propyl)pyrazol-4-yl]pyrido[3,4-d]pyrimidin-2-yl]phenyl]ethynyl]-3-hydroxy-1-methyl-pyrrolidin-2-one] | 4 nM | ≤ 0.5 nM
16 | CN1CC[C@@](O)(C#Cc2cccc(-c3ncc4c(-c5cn[nH]c5)cnc(N)c4n3)c2)C1=O [Example 124, (R)-3-[2-[3-[8-Amino-5-(1H-pyrazol-4-yl)pyrido[3,4-d]pyrimidin-2-yl]phenyl]ethynyl]-3-hydroxy-1-methyl-pyrrolidin-2-one] | 7.7 nM | ≤ 0.5 nM
17 | Cc1n[nH]c(C)c1-c1cnc(N)c2nc(-c3cccc(C#C[C@]4(O)CCN(C)C4=O)c3)ncc12 [Example 125, (R)-3-[2-[3-[8-Amino-5-(3,5-dimethyl-1H-pyrazol-4-yl)pyrido[3,4-d]pyrimidin-2-yl]phenyl]ethynyl]-3-hydroxy-1-methyl-pyrrolidin-2-one] | 18 nM | ≤ 0.5 nM
18 | CN1CC[C@@](O)(C#Cc2cccc(-c3cc(C#N)c4ncnc(N)c4c3)c2)C1=O [Example 126, (R)-4-Amino-6-(3-((3-hydroxy-1-methyl-2-oxopyrrolidin-3-yl)ethynyl)phenyl)quinazoline-8-carbonitrile] | 820 nM | 0.9 nM
19 | Cc1[nH]ncc1-c1cnc(N)c2nc(-c3cccc(C#C[C@]4(O)CCN(C)C4=O)c3)ncc12 [Example 127, (R)-3-[2-[3-[8-Amino-5-(5-methyl-1H-pyrazol-4-yl)pyrido[3,4-d]pyrimidin-2-yl]phenyl]ethynyl]-3-hydroxy-1-methyl-pyrrolidin-2-one] | 12 nM | ≤ 0.5 nM
20 | CN1CC[C@@](O)(C#Cc2cccc(-c3ncc4c(C(=O)Oc5ccccc5)cnc(N)c4n3)c2)C1=O [Example 128, (R)-Phenyl 8-amino-2-[3-[2-(3-hydroxy-1-methyl-2-oxo-pyrrolidin-3-yl)ethynyl]phenyl]pyrido[3,4-d]pyrimidine-5-carboxylate] | 28 nM | 0.6 nM
21 | CCc1cnc(N)c2nc(-c3cccc(C#C[C@]4(O)CCN(C)C4=O)c3)ncc12 [Example 129, (R)-3-((3-(8-Amino-5-ethylpyrido[3,4-d]pyrimidin-2-yl)phenyl)ethynyl)-3-hydroxy-1-methylpyrrolidin-2-one] | 12 nM | ≤ 0.5 nM
22 | CC(C)Cc1cnc(N)c2nc(-c3cccc(C#C[C@]4(O)CCN(C)C4=O)c3)ncc12 [Example 130, (R)-3-((3-(8-Amino-5-isobutylpyrido[3,4-d]pyrimidin-2-yl)phenyl)ethynyl)-3-hydroxy-1-methylpyrrolidin-2-one] | 58 nM | 0.7 nM
23 | CC1(C)CC[C@@](O)(C#Cc2cccc(-c3ccc4ncnc(N)c4n3)c2)C1=O [Example 131, (R)-2-[2-[3-(4-Aminopyrido[3,2-d]pyrimidin-6-yl)phenyl]ethynyl]-2-hydroxy-5,5-dimethyl-cyclopentanone] | 47 nM | ≤ 0.5 nM
24 | CC1(C)CC[C@](O)(C#Cc2cccc(-c3ccc4ncnc(N)c4n3)c2)C1=O [Example 132, (S)-2-[2-[3-(4-Aminopyrido[3,2-d]pyrimidin-6-yl)phenyl]ethynyl]-2-hydroxy-5,5-dimethyl-cyclopentanone] | 730 nM | 46 nM
25 | CN1CC[C@@](O)(C#Cc2cccc(-c3ncc4c(CN5CCCC5)cnc(N)c4n3)c2)C1=O [Example 133, (R)-3-[2-[3-[8-Amino-5-(pyrrolidin-1-ylmethyl)pyrido[3,4-d]pyrimidin-2-yl]phenyl]ethynyl]-3-hydroxy-1-methyl-pyrrolidin-2-one] | 400 nM | 6.8 nM
26 | CN1CC[C@@](O)(C#Cc2cccc(-c3ncc4c(-c5cnn(CCN)c5)cnc(N)c4n3)c2)C1=O [Example 134, (R)-3-[2-[3-[8-Amino-5-[1-(2-aminoethyl)pyrazol-4-yl]pyrido[3,4-d]pyrimidin-2-yl]phenyl]ethynyl]-3-hydroxy-1-methyl-pyrrolidin-2-one] | 150 nM | ≤ 0.5 nM
27 | CN(C)Cc1cnc(N)c2nc(-c3cccc(C#C[C@]4(O)CCN(C)C4=O)c3)ncc12 [Example 135, (R)-3-[2-[3-[8-Amino-5-(dimethylaminomethyl)pyrido[3,4-d]pyrimidin-2-yl]phenyl]ethynyl]-3-hydroxy-1-methyl-pyrrolidin-2-one] | 140 nM | 5.7 nM
28 | Cc1nc(-c2cccc(C#C[C@]3(O)CCN(C)C3=O)c2)cc2c(N)ncnc12 [Example 136, (R)-3-[2-[3-(4-Amino-8-methyl-pyrido[3,4-d]pyrimidin-6-yl)phenyl]ethynyl]-3-hydroxy-1-methyl-pyrrolidin-2-one] | 60 nM | 0.7 nM
29 | C[C@@](O)(C#Cc1cccc(-c2ncc3ncnc(N)c3n2)c1)c1nccs1 [Example 137, (R)-4-(3-(8-Aminopyrimido[5,4-d]pyrimidin-2-yl)phenyl)-2-(thiazol-2-yl)but-3-yn-2-ol] | 9.3 nM | ≤ 0.5 nM

Source: patent publication US20240199605A1, “SMALL MOLECULAR INHIBITORS OF NF-kB INDUCING KINASE” (Janssen Pharmaceutica NV, priority 2019, published 2024)
